According to ChEMBL document CHEMBL5214990, “Novel Aryl Alkamidazole Derivatives as Multifunctional Antifungal Inhibitors: Design, Synthesis, and Biological Evaluation” (J Med Chem, 2022):
≈ marks a conversion by molar mass, not a printed value. Calls of active or inactive are those of the source. No cut-off for these calls is given here.

How the values were obtained:
Candida albicans [1] = assay: Antifungal activity against Candida albicans assessed as inhibition of fungal cell proliferation by measuring decrease in fungal cell density measured after 24 hrs; assay type: functional, organism-based
[2] = target: T1, Lanosterol 14-alpha demethylase (Candida albicans (strain SC5314 / ATCC MYA-2876) (Yeast), UniProt P10613); assay: Inhibition of CYP51 in Candida albicans ATCC SC5314 assessed as unknown sterol content at 4 ug/ml measured after 48 hrs by GC-MS analysis; parameters: scale not given: the % may be the effect or the level left; conditions: at 4 µg/mL
T1 sequence (P10613 whole entry): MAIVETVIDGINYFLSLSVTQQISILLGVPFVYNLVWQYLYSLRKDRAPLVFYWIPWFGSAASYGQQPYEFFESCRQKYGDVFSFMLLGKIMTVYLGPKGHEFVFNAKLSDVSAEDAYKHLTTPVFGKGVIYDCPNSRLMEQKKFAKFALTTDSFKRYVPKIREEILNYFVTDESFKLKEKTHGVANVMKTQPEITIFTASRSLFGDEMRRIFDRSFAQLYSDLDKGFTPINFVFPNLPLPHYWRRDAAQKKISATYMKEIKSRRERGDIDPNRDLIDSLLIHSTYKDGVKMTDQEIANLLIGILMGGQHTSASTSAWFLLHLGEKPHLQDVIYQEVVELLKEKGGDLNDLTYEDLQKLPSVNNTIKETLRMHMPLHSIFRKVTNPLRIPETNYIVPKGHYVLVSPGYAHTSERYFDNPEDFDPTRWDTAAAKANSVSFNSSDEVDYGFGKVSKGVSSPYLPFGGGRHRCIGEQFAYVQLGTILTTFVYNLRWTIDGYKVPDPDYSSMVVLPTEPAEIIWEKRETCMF

[3] = Hepatotoxicity in mouse infected with Candida albicans assessed as plasma AST level at 20 mg/kg, ip administered on days 2,4,6,8,10,12 and measured on day 14 (reference value: 53.4 +/-6.8 IU/L); assay type: toxicity, organism-based; conditions: in vivo, 312 h, time 13 day
Mus musculus [4] = assay: Anti-inflammatory activity in mouse infected with Candida albicans assessed as reduction in IL-6R expression in infection tissues at 20 mg/kg, ip administered on days 2,4,6,8,10,12 and measured on day 14 by western blot analysis; assay type: functional, organism-based; conditions: time 13.0 day
Candida albicans [5] = assay: Antifungal activity against fluconazole-resistant Candida albicans 632 assessed as inhibition of fungal growth measured after 72 hrs by CLSI based liquid medium dilution method; assay type: functional
Candida albicans [6] = assay: Antifungal activity against fluconazole-resistant Candida albicans CaR assessed as inhibition of fungal growth measured after 72 hrs by CLSI based liquid medium dilution method; assay type: functional
Mus musculus [7] = assay: Anti-inflammatory activity in mouse infected with Candida albicans assessed as reduction in IL-6R expression in spleen at 20 mg/kg, ip administered on days 2,4,6,8,10,12 and measured on day 14 by immunohistochemical analysis; assay type: functional, organism-based; conditions: time 13.0 day
[8] = target: T1, Lanosterol 14-alpha demethylase; assay: Inhibition of CYP51 in Candida albicans ATCC SC5314 assessed as ergosterol content at 4 ug/ml measured after 48 hrs by GC-MS analysis (reference value: 95.61%); parameters: scale not given: the % may be the effect or the level left; conditions: at 4 µg/mL
[9] = Hepatotoxicity in mouse infected with Candida albicans assessed as plasma ALT level at 20 mg/kg, ip administered on days 2,4,6,8,10,12 and measured on day 14 (reference value: 33.5 +/-3.4 IU/L); assay type: toxicity, organism-based; conditions: in vivo, 312 h, time 13 day
[10] = target: T1, Lanosterol 14-alpha demethylase; assay: Inhibition of CYP51 in Candida albicans ATCC SC5314 assessed as lanosterol content at 4 ug/ml measured after 48 hrs by GC-MS analysis; parameters: scale not given: the % may be the effect or the level left; conditions: at 4 µg/mL
Candida albicans [11] = assay: Antifungal activity against Candida albicans infected in mouse assessed as reduction in necrotic cell fragments in intercellular spaces of the infection region at 20 mg/kg, ip administered on days 2,4,6,8,10,12 and measured on day 14 by GMS staining based analysis; assay type: functional, organism-based; conditions: time 13.0 day
Candida albicans [12] = assay: Induction of apoptosis in Candida albicans assessed as early apoptotic cells measured after 24 hrs by Annexin V-FITC/PI staining based flow cytometry (reference value: 0.46%); assay type: functional
Candida albicans [13] = assay: Antifungal activity against Candida albicans infected in mouse assessed as reduction in total amount of fungal cells in infection region at 20 mg/kg, ip administered on days 2,4,6,8,10,12 and measured on day 14 by GMS staining based analysis; assay type: functional, organism-based; conditions: time 13.0 day
Mus musculus [14] = assay: Anti-inflammatory activity in mouse infected with Candida albicans assessed as reduction in NLRP3 expression in infection tissues at 20 mg/kg, ip administered on days 2,4,6,8,10,12 and measured on day 14 by western blot analysis; assay type: functional, organism-based; conditions: time 13.0 day
Candida albicans [15] = assay: Antifungal activity against Candida albicans infected in mouse assessed as shrinkage of fungal infection region at 20 mg/kg, ip administered on days 2,4,6,8,10,12 and measured on day 14; assay type: functional, organism-based; conditions: time 13.0 day
Mus musculus [16] = assay: Immunomodulatory activity in mouse infected with Candida albicans assessed as increase in expression intensity of CD3+ T cells in spleen at 20 mg/kg, ip administered on days 2,4,6,8,10,12 and measured on day 14 by immunohistochemical staining analysis relative to fluconazole; assay type: functional, T-cell; conditions: time 13 day
Mus musculus [17] = assay: Immunomodulatory activity in mouse infected with Candida albicans assessed as increase in expression intensity of CD3+ T cells in spleen at 20 mg/kg, ip administered on days 2,4,6,8,10,12 and measured on day 14 by immunohistochemical staining analysis relative to control; assay type: functional, T-cell; conditions: time 13 day
Mus musculus [18] = assay: Immunomodulatory activity in mouse infected with Candida albicans assessed as increase in expression intensity of CD8+ T cells in spleen at 20 mg/kg, ip administered on days 2,4,6,8,10,12 and measured on day 14 by immunohistochemical staining analysis relative to control; assay type: functional, T-cell; conditions: time 13 day
[19] = Toxicity in mouse infected with Candida albicans assessed as morphological changes in liver at 20 mg/kg, ip administered on days 2,4,6,8,10,12 and measured on day 14 by hematoxyin-eosin staining based analysis; assay type: organism-based; conditions: in vivo, 312 h, time 13 day
[20] = Toxicity in mouse infected with Candida albicans assessed as morphological changes in spleen at 20 mg/kg, ip administered on days 2,4,6,8,10,12 and measured on day 14 by hematoxyin-eosin staining based analysis; assay type: organism-based; conditions: in vivo, 312 h, time 13 day
[21] = Increase in intracellular ROS level in Candida albicans assessed as fold increase in fluorescence intensity measured after 12 hrs by fluorescence microscopic analysis relative to control; assay type: functional
[22] = Toxicity in mouse infected with Candida albicans assessed as morphological changes in kidney at 20 mg/kg, ip administered on days 2,4,6,8,10,12 and measured on day 14 by hematoxyin-eosin staining based analysis; assay type: organism-based; conditions: in vivo, 312 h, time 13 day
[23] = Increase in intracellular ROS level in Cryptococcus neoformans assessed as fold increase in fluorescence intensity measured after 12 hrs by fluorescence microscopic analysis relative to control; assay type: functional
Mus musculus [24] = assay: Immunomodulatory activity in mouse infected with Candida albicans assessed as increase in expression intensity of CD8+ T cells in spleen at 20 mg/kg, ip administered on days 2,4,6,8,10,12 and measured on day 14 by immunohistochemical staining analysis relative to fluconazole; assay type: functional, T-cell; conditions: time 13 day
[25] = Drug uptake in Candida albicans ATCC SC5314 assessed as increase in red and green fluorescence intensity measured after 10 hrs by PI/Hoechst […] staining based fluorescence microscopy; assay type: ADME
[26] = Toxicity in mouse infected with Candida albicans assessed as morphological changes in heart at 20 mg/kg, ip administered on days 2,4,6,8,10,12 and measured on day 14 by hematoxyin-eosin staining based analysis; assay type: organism-based; conditions: in vivo, 312 h, time 13 day

Compound	Activity (Candida albicans [1])	Activity [2]	Activity [3]	Activity (Mus musculus [4])	MIC50 (Candida albicans [5])	MIC50 (Candida albicans [6])	Activity (Mus musculus [7])	Activity [8]	Activity [9]	Activity [10]	Activity (Candida albicans [11])	Activity (Candida albicans [12])	Activity (Candida albicans [13])	Activity (Mus musculus [14])	Activity (Candida albicans [15])	fold change (FC) (Mus musculus [16])	fold change (FC) (Mus musculus [17])	fold change (FC) (Mus musculus [18])	Activity [19]	Activity [20]	also measured
OC(Cn1cncn1)(Cn1cncn1)c1ccc(F)cc1F [FLUCONAZOLE]	Active	4.09%	80.5 IU/L	Active	> 8 µg/mL	> 8 µg/mL	Active	20.57%	46.1 IU/L	35.17%	Active	12.3%	Active	Active	–	–	–	–	–	–	–
C[C@H](C(=O)N(C)CC(O)(Cn1ccnc1)c1ccc(Cl)cc1)c1ccc(-c2ccccc2)c(F)c1 (stereo partly specified)	Active	3.47%	69.5 IU/L	Active	4 µg/mL (≈ 8.13 µM)	1 µg/mL (≈ 2.03 µM)	Active	13.51%	42.4 IU/L	39.74%	Active	1.8%	Active	Active	Active	2.12	2.12	2.12	Non-Toxic	Non-Toxic	fold change (FC) [21]: 4; Activity [22]: Non-Toxic; fold change (FC) [23]: 4; fold change (FC) (Mus musculus [24]): 2.12; Drug uptake [25]: Active; Activity [26]: Non-Toxic
C[C@H](C(=O)N(C)CC(O)(Cn1ccnc1)c1ccc(Cl)cc1Cl)c1cccc(C(=O)c2ccccc2)c1 (stereo partly specified)	Active	2.61%	66.5 IU/L	Active	2 µg/mL (≈ 3.73 µM)	1 µg/mL (≈ 1.86 µM)	Active	7.95%	43.2 IU/L	38.57%	Active	2.13%	Active	Active	Active	2.12	2.12	2.12	Non-Toxic	Non-Toxic	fold change (FC) [21]: 4; Activity [22]: Non-Toxic; fold change (FC) [23]: 4; fold change (FC) (Mus musculus [24]): 2.12; Drug uptake [25]: Active; Activity [26]: Non-Toxic
